Results taken from patent US20230265116A1, “DEGRADATION OF (EGFR) BY CONJUGATION OF EGFR INHIBITORS WITH E3 LIGASE LIGAND AND METHODS OF USE” (BEIGENE, LTD., priority 2020, published 2023).
Read-outs that look alike come from different tables or passages of the source.

Experiments:
[1] = molecular target: T1, EGFR L858R/T790M/C797S (BaF3-LTC cells) (Homo sapiens, UniProt P00533, C797S/L858R/T790M); test: EGFR degradation HTRF assay, BaF3-LTC cells; format: cell-based; conditions: BaF3-LTC, 16h treatment; for Dmax: maximum percentage of degradation, read-out: LTC Dmax (%); for DC50: read-out: LTC DC50
T1 construct: expressed in transfected cells; host or cells: BaF3
T1 sequence (P00533 25-1210 T790M/C797S/L858R): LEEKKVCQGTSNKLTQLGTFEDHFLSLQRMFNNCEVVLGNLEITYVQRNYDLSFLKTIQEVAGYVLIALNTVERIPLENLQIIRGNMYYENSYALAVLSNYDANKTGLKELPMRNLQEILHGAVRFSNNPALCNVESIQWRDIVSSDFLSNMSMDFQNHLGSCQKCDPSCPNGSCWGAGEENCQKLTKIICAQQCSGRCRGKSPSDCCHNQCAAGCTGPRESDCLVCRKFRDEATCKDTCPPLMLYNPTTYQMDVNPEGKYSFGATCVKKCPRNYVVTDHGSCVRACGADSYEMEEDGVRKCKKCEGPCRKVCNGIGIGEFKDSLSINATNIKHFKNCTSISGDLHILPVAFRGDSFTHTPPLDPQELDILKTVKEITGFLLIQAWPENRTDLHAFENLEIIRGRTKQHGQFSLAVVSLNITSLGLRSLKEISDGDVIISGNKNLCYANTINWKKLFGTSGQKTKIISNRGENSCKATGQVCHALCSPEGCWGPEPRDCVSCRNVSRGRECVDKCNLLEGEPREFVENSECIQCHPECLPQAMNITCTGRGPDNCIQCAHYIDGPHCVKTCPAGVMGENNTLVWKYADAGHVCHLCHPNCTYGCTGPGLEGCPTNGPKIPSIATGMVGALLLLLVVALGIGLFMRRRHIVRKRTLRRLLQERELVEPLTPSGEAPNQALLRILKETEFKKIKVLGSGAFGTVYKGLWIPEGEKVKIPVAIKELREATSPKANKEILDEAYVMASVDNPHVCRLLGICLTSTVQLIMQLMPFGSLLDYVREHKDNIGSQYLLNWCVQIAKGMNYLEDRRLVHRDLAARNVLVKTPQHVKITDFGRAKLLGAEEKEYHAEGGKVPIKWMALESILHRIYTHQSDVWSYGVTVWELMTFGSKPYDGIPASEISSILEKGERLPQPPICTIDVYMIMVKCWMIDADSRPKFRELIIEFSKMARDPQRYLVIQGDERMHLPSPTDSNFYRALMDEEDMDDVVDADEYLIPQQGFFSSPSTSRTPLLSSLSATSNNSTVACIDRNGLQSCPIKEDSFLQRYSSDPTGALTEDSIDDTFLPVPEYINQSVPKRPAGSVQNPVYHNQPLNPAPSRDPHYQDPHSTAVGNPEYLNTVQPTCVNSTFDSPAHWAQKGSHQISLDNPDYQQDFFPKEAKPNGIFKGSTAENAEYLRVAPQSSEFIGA
In short: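 EGFR remaining after a 16 h, 37 °C exposure (8 doses, 5-fold steps from 10 uM final, 0.2% DMSO) was quantified by HTRF antibodies in cell lysate. Percent inhibition relative to DMSO control was fitted by four-parameter logistic to give DC50; Dmax denotes maximal degradation.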

[2] = test system: EGFR Del19/T790M/C797S (BaF3-DTC cells); test: EGFR degradation HTRF assay, BaF3-DTC cells; format: cell-based; conditions: for DTC Dmax (%): maximum percentage of degradation
In short: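 Cells treated 16 h at 37 °C, 5% CO2 in medium with 0.2% DMSO; top final concentration 10 uM, 5-fold dilution, 8 doses. Lysates read by HTRF (665/620 nm); degradation % versus DMSO high control, DC50 from four-parameter fit, Dmax as maximal degradation.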

[3] = 16h treatment, read-out: DTC DC50

Dmax [1] | DC50 [1] | DC50 [2, 3] | SMILES | DTC Dmax (%) ([2]; 16h treatment) | DC50 ([2]; read-out: DTC DC50, 16h treatment)
90.4% | 72.9 nM | 30.6 nM | CCc1cc(Nc2ncc(Br)c(Nc3ccc4nc(C)ccc4c3P(C)(C)=O)n2)c(OC)cc1N1CCC(N2CCN(CCC3CCN(c4ccc5nn(C6CCC(=O)NC6=O)cc5c4)CC3)CC2)CC1 (centres unmarked) [Example 719, 3-(5-(4-(2-(4-(1-(4-((5-bromo-4-((5-(dimethylphosphoryl)-2-methylquinolin-6-yl)amino)pyrimidin-2-yl)amino)-2-ethyl-5-methoxyphenyl)piperidin-4-yl)piperazin-1-yl)ethyl)piperidin-1-yl)-2H-indazol-2-yl)piperidine-2,6-dione] | 84.38% | –
95.3% | 4.56 nM | 1.53 nM | CCc1cc(Nc2ncc(Br)c(Nc3ccc4c(=O)n(C)ccc4c3P(C)(C)=O)n2)c(OC)cc1N1CCC(N2CCN(CCc3cccc4c3n(C)c(=O)n4C3CCC(=O)NC3=O)CC2)CC1 (centres unmarked) [Example 705, 3-(4-(2-(4-(1-(4-((5-bromo-4-((5-(dimethylphosphoryl)-2-methyl-1-oxo-1,2-dihydroisoquinolin-6-yl)amino)pyrimidin-2-yl)amino)-2-ethyl-5-methoxyphenyl)piperidin-4-yl)piperazin-1-yl)ethyl)-3-methyl-2-oxo-2,3-dihydro-1H-benzo[d]imidazol-1-yl)piperidine-2,6-dione] | 88.58% | –
88.5% | 9.91 nM | 0.984 nM | CCc1cc(Nc2ncc(Br)c(Nc3ccc4ncc(F)cc4c3P(C)(C)=O)n2)c(OC)cc1N1CCC(N2CCN(CCc3cc(F)c(C4CCC(=O)NC4=O)c(F)c3)CC2)CC1 (centres unmarked) [Example 336, 3-(4-(2-(4-(1-(4-((5-bromo-4-((5-(dimethylphosphoryl)-3-fluoroquinolin-6-yl)amino)pyrimidin-2-yl)amino)-2-ethyl-5-methoxyphenyl)piperidin-4-yl)piperazin-1-yl)ethyl)-2,6-difluorophenyl)piperidine-2,6-dione] | 94.98% | –
89.6% | 121 nM | 25.6 nM | CCc1cc(Nc2ncc(Br)c(Nc3ccc4nc(C)ccc4c3P(C)(C)=O)n2)c(OC)cc1N1CCC(N2CCN(CC3CCN(c4cc(F)c(NC5CCC(=O)NC5=O)c(F)c4)CC3)CC2)CC1 (centres unmarked) [Example 718, 3-((4-(4-((4-(1-(4-((5-bromo-4-((5-(dimethylphosphoryl)-2-methylquinolin-6-yl)amino)pyrimidin-2-yl)amino)-2-ethyl-5-methoxyphenyl)piperidin-4-yl)piperazin-1-yl)methyl)piperidin-1-yl)-2,6-difluorophenyl)amino)piperidine-2,6-dione] | 79.24% | –
94.5% | 4.5 nM | 2.64 nM | COc1cc(N2CCC(N3CCN(CCc4cc(F)c(C5CCC(=O)NC5=O)c(F)c4)CC3)CC2)c(C(C)O)cc1Nc1ncc(Br)c(Nc2ccc3nccnc3c2P(C)(C)=O)n1 (centres unmarked) [Example 430, 3-(4-(2-(4-(1-(4-((5-bromo-4-((5-(dimethylphosphoryl)quinoxalin-6-yl)amino)pyrimidin-2-yl)amino)-2-(1-hydroxyethyl)-5-methoxyphenyl)piperidin-4-yl)piperazin-1-yl)ethyl)-2,6-difluorophenyl)piperidine-2,6-dione] | 97.63% | –

Further lines, the compound ahead of its results:

SMILES | Dmax [1] | DC50 [1] | DC50 [2, 3] | DTC Dmax (%) ([2]; 16h treatment) | DC50 ([2]; read-out: DTC DC50, 16h treatment)
CCc1cc(Nc2ncc(Br)c(Nc3ccc4nc(C)ccc4c3P(C)(C)=O)n2)c(OC)cc1N1CCC(N2CCN(CCc3ccc4c(c3)C3(CC3)C(=O)N4C3CCC(=O)NC3=O)CC2)CC1 (centres unmarked) [Example 710, 3-(5′-(2-(4-(1-(4-((5-bromo-4-((5-(dimethylphosphoryl)-2-methylquinolin-6-yl)amino)pyrimidin-2-yl)amino)-2-ethyl-5-methoxyphenyl)piperidin-4-yl)piperazin-1-yl)ethyl)-2′-oxospiro[cyclopropane-1,3′-indolin]-1′-yl)piperidine-2,6-dione] | 90.9% | 13.6 nM | 2.69 nM | 87.65% | –
CCc1cc(Nc2ncc(Br)c(Nc3ccc4nc(C)ccc4c3P(C)(C)=O)n2)c(OC)cc1N1CCC(N2CCN(C(=O)C3CCN(c4ccc5c(c4)C(C)(C)C(=O)N5C4CCC(=O)NC4=O)CC3)CC2)CC1 (centres unmarked) [Example 436, 3-(5-(4-(4-(1-(4-((5-bromo-4-((5-(dimethylphosphoryl)-2-methylquinolin-6-yl)amino)pyrimidin-2-yl)amino)-2-ethyl-5-methoxyphenyl)piperidin-4-yl)piperazine-1-carbonyl)piperidin-1-yl)-3,3-dimethyl-2-oxoindolin-1-yl)piperidine-2,6-dione] | 92.5% | 3.2 nM | – | 89.14% | 2.38 nM
CCc1cc(Nc2ncc(Br)c(Nc3ccc4nc(C)ccc4c3P(C)(C)=O)n2)c(OC)cc1N1CCC(N2CCC(C(=O)N3CCC(c4cc(F)c(C5CCC(=O)NC5=O)c(F)c4)CC3)CC2)CC1 (centres unmarked) [Example 700, 3-(4-(1-(1′-(4-((5-bromo-4-((5-(dimethylphosphoryl)-2-methylquinolin-6-yl)amino)pyrimidin-2-yl)amino)-2-ethyl-5-methoxyphenyl)-[1,4′-bipiperidine]-4-carbonyl)piperidin-4-yl)-2,6-difluorophenyl)piperidine-2,6-dione] | 92.4% | 13.1 nM | 6.49 nM | 83.8% | –
CCc1cc(Nc2ncc(Br)c(Nc3ccc4nccnc4c3P(C)(C)=O)n2)c(OC)cc1N1CCC(N2CCN(C(=O)[C@H]3CCN(c4ccc(C5CCC(=O)NC5=O)cc4)C3)CC2)CC1 (stereo partly drawn) [Example 223, 3-(4-((S)-3-(4-(1-(4-((5-bromo-4-((5-(dimethylphosphoryl)quinoxalin-6-yl)amino)pyrimidin-2-yl)amino)-2-ethyl-5-methoxyphenyl)piperidin-4-yl)piperazine-1-carbonyl)pyrrolidin-1-yl)phenyl)piperidine-2,6-dione] | 82.9% | 31.3 nM | 8.56 nM | 86.61% | –
CCc1cc(Nc2ncc(Br)c(Nc3ccc4nccnc4c3P(C)(C)=O)n2)c(OC)cc1N1CCC(N2CCN(C[C@@H]3CCN(c4ccc5c(c4)C(=O)N(C4CCC(=O)NC4=O)C5=O)C3)CC2)CC1 (stereo partly drawn) [Example 235, 5-((S)-3-((4-(1-(4-((5-bromo-4-((5-(dimethylphosphoryl)quinoxalin-6-yl)amino)pyrimidin-2-yl)amino)-2-ethyl-5-methoxyphenyl)piperidin-4-yl)piperazin-1-yl)methyl)pyrrolidin-1-yl)-2-(2,6-dioxopiperidin-3-yl)isoindoline-1,3-dione] | 78% | 30.1 nM | 17.5 nM | 81.09% | –
CCc1cc(Nc2ncc(Br)c(Nc3ccc4ncccc4c3P(C)(C)=O)n2)c(OC)cc1N1CCC(N2CCN(CCc3cc(F)c(C4CCC(=O)NC4=O)c(F)c3)CC2)CC1 (centres unmarked) [Example 201, 3-(4-(2-(4-(1-(4-((5-bromo-4-((5-(dimethylphosphoryl)quinolin-6-yl)amino)pyrimidin-2-yl)amino)-2-ethyl-5-methoxyphenyl)piperidin-4-yl)piperazin-1-yl)ethyl)-2,6-difluorophenyl)piperidine-2,6-dione] | 92% | 6.8 nM | 1.72 nM | 95.68% | –
